Test results: PMC5515969, “Effects of 31 FDA approved small-molecule kinase inhibitors on isolated rat liver mitochondria” (Archives of Toxicology, 2016)
Counter-ions that a name gives are not always drawn. Like-named read-outs stand apart in the source and are kept apart here. Marks after values point to notes of the source that are not given here.

Columns and labels:
[1] = system: isolated rat liver mitochondria; assay: Mitochondrial oxygen consumption (glutamate/malate or succinate driven, state 4 and state 3); type: biochemical; conditions: DMSO treated samples set as 1; as to State 3 respiration driven by succinate at 10XCmax: key: 0 indicates that the drug had no effects (negative); as to State 3 respiration driven by succinate at 1XCmax: key: 0 indicates that the drug had no effects (negative)
Protocol: Rats were anesthetized by an intraperitoneal injection of Nembutal and the liver perfused with PBS to remove the blood. The liver was then cut into small pieces and homogenized using a Dounce type homogenizer in the ice-cold isolation buffer (IB) containing 200 mM sucrose, 10 mM Tris-MOPS, 1 mM EGTA (pH 7.4). The sample was then centrifuged at 600g for 10 min. The supernatant was further centrifuged at 7500g for 10 min, and the pellets was washed once with the IB and centrifuged again at 7500g for 10 min to collect mitochondria. […] Before drug treatment, the protein concentration was adjusted to 1 mg/ml using appropriate buffer. […] Briefly, mitochondrial and cytosolic fractions from four different preparations using four rats were diluted using the Laemmli protein loading buffer and subject to SDS-PAGE with 4–20% gradient gels. The proteins were blotted to PVDF membranes and detected using antibodies against GAPDH, ATP5A, UQCRC2, SDHB, and NDUFB8.
The aliquoted stock solutions were kept for less than one month and each tube was used only once. The KIs were added to the mitochondria at 1:1000 dilutions. […] The Cmax data were from clinical trials which used FDA recommend dosages, route of administration, and duration. […] The final concentration of DMSO for drug treatment was always 0.1%, and control treatments were 0.1% DMSO.
Briefly, mitochondria were incubated with the KIs for 5 min, and then split evenly and loaded to the sample tubes of two Oxytherm systems (Hansatech Instruments Ltd), with one system used for measuring glutamate/malate driven respiration and the other succinate-driven respiration, both of which were defined as state 4 respiration. After 3 min, ADP was added to measure the maximal oxygen consumption rate, which was defined as state 3 respiration. […] The oxygen consumption rate of DMSO-treated samples (controls) was set as 1.

RCC I = RCC I activity in submitochondrial particles; type: biochemical, rat; set-up: key to RCC I at 10XCmax / RCC I at 100XCmax / RCC I at 50XCmax / RCC I at 30XCmax / RCC I at 20XCmax: activity relative to DMSO-treated controls (control set as 1 = 100%); conditions: 10XCmax; relative to DMSO treated samples
Protocol: (§1) KIs were incubated with submitochondrial particles (1 mg/ml) for 15 min and then RCC I–V activities measured. […] The activities of DMSO-treated samples (controls) were set as 1. […] The difference between the activity from rotenone-containing buffer and rotenone-absent buffer was considered as RCC I activity. […] For measuring RCC I/V and II activity, the changes in absorbance at 340 and 600 nm, respectively, were determined every 1 min for 6 min. For measuring RCC III and RCC IV, the changes in absorbance at 550 nm were measured every 10 s for 2 min.

RCC II = biological target: T1, RCC II (Rattus norvegicus, UniProt P21913+Q641Z9+Q6PCT8+Q920L2); assay: RCC II activity in submitochondrial particles; type: biochemical; set-up: key: activity relative to DMSO-treated controls (control set as 1 = 100%); conditions: relative to DMSO treated samples
T1 construct: Submitochondrial particles were prepared by subjecting the intact mitochondria to three successive freeze–thaw cycles; from tissue; host or cells: rat liver mitochondria, used as submitochondrial particles
T1 sequence (Q920L2 35-656): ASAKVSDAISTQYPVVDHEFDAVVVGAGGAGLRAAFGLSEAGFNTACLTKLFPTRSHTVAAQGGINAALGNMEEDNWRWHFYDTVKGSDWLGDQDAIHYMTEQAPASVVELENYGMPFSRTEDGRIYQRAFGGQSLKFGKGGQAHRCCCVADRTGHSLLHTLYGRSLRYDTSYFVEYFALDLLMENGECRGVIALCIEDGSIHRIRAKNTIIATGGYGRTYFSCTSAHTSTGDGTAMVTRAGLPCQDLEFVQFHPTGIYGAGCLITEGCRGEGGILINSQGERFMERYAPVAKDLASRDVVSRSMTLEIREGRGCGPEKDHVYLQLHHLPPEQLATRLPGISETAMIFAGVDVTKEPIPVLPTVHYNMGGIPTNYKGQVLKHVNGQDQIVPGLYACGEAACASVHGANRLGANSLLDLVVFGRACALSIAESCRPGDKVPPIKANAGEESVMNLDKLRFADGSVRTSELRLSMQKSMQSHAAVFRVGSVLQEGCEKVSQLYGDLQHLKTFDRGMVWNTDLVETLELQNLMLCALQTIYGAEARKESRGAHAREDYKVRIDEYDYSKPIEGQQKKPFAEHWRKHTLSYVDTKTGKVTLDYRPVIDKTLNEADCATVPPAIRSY
T1 sequence (P21913 31-282): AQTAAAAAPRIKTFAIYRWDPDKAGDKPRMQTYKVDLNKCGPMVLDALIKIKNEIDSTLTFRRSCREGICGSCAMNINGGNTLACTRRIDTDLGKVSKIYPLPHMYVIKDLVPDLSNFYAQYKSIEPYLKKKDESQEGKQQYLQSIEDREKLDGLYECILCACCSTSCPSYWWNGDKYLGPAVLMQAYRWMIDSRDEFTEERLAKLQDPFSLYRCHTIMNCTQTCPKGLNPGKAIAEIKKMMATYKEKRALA
T1 sequence (Q641Z9 1-169): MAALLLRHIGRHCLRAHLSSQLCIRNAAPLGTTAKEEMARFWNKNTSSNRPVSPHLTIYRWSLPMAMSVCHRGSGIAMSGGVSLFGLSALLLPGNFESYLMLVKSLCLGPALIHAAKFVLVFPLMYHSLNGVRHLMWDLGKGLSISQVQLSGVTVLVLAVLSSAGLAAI
T1 sequence (Q6PCT8 57-159): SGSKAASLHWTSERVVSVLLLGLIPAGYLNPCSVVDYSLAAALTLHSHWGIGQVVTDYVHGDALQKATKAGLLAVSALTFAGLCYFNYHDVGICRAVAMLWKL
Protocol: as §1

RCC V = RCC V activity in submitochondrial particles; type: biochemical, rat; conditions: relative to DMSO treated samples; as to RCC V at 5XCmax: key: 0 indicates that the drug had no effects (negative)
Protocol: as §1

[2] = system: isolated rat liver mitochondria; assay: Mitochondrial inner membrane potential (MMP), Rhodamine 123; type: biochemical; conditions: difference in signal between KI and DMSO treated samples at the end of experiments
Text: Fig. 3 KI effects on mitochondrial inner membrane potential (MMP). […] In a, c, data are means and standard derivations from three separate experiments. *p < 0.05 as compared to DMSO-treated samples at the end of experiments. In b, data are means of two independent experiments

[3] = system: isolated rat liver mitochondria; assay: Mitochondrial swelling (absorbance at 535 nm); type: biochemical; conditions: difference in signal between KI and DMSO treated samples at the end of experiments; as to Swelling 5XCmax: key: 0 indicates that the drug had no effects (negative)
[4] = system: isolated rat liver mitochondria; conditions: positive control alamethicin treated samples
[5] = set-up: method as in product labeling; conditions: ref product labeling, cited from earlier work; for Labeling for cardiotoxicity: BBW: black box warning, W&P: Warnings and Precautions
[6] = therapeutic maximal blood concentration, ref product labeling, cited from earlier work
[7] = cited from earlier work; for DILI potential (based on labeling): 1 = DILI positive, 0 = negative
[8] = system: isolated rat liver mitochondria; assay: Mitochondrial ROS production (CM-H2DCFDA); conditions: DMSO treated samples set as 1

SMILES | State 3 respiration driven by succinate at 1XCmax ([1]; 1XCmax) | State 4 respiration driven by succinate at 1XCmax ([1]; 1XCmax) | State 3 respiration driven by succinate at 2.5XCmax ([1]; 2.5XCmax) | State 4 respiration driven by succinate at 2.5XCmax ([1]; 2.5XCmax) | State 3 respiration driven by succinate at 5XCmax ([1]; 5XCmax) | State 4 respiration driven by succinate at 5XCmax ([1]; 5XCmax) | State 3 respiration driven by succinate at 10XCmax ([1]; 10XCmax) | State 4 respiration driven by succinate at 10XCmax ([1]; 10XCmax) | RCC I at 10XCmax (RCC I) | RCC II at 1.0XCmax (RCC II) | RCC II at 2.5XCmax (RCC II) | RCC II at 5XCmax (RCC II) | RCC II at 10XCmax (RCC II) | MMP measured by Rhodamine 123 at 1XCmax [2] | MMP measured by Rhodamine 123 at 2.5XCmax [2] | MMP measured by Rhodamine 123 at 5XCmax [2] | MMP measured by Rhodamine 123 at 10XCmax [2] | Swelling 1XCmax [3] | Swelling 2.5XCmax [3] | Cytochrome c release 1XCmax [4] | also measured
CNC(=O)c1cc(Oc2ccc(NC(=O)Nc3ccc(Cl)c(C(F)(F)F)c3)cc2)ccn1 [sorafenib tosylate] | 0 | 1.50±0.21 | 0.62±0.05 | 1.43±0.06 | 0.40±0.01 | 0 | 0 | 3.34±0.45 | 0 | 0 | 0 | 0 | 0 | 4037±631* | 4075±739* | 3781±744* | 3380±680* | 0 | 0.29±0.02 | 0 | State 4 respiration driven by glutamate/malate at 1XCmax ([1]; 1XCmax): 2.55±0.27; State 3 respiration driven by glutamate/malate at 2.5XCmax ([1]; 2.5XCmax): 1.57±0.06; State 4 respiration driven by glutamate/malate at 2.5XCmax ([1]; 2.5XCmax): 4.92±0.09; State 4 respiration driven by glutamate/malate at 5XCmax ([1]; 5XCmax): 3.69±0.12; State 4 respiration driven by glutamate/malate at 10XCmax ([1]; 10XCmax): 5.00±1.92; RCC V at 10XCmax (RCC V; 10XCmax): 65.55±6.34; Cytochrome c release 2.5XCmax [4]: 0; Cytochrome c release 5XCmax [4]: 12.12±5.17 percentage of the positive control group; Labeling for cardiotoxicity [5]: W&P: Cardiac Ischemia and/or Infarction; QT Interval Prolongation; Potential for cardiotoxicity (based on labeling) [5]: 1; Cmax ([6]; read-out: Cmax at µM): 4.3 µM; DILI potential (based on labeling) ([7]; ref product labeling): 1; Labeling for DILI ([7]; BBW: black box warning, W&P: Warnings and Precautions, ref product labeling): W&P: fatal DILI; ROS measured by CM-H2DCFDA at 1XCmax [8]: 0; ROS measured by CM-H2DCFDA at 2.5XCmax [8]: 0; ROS measured by CM-H2DCFDA at 5XCmax [8]: 0; ROS measured by CM-H2DCFDA at 10XCmax [8]: 0
CS(=O)(=O)CCNCc1ccc(-c2ccc3ncnc(Nc4ccc(OCc5cccc(F)c5)c(Cl)c4)c3c2)o1 [lapatinib ditosylate monohydrate] | 0 | 0 | 0 | 0 | 0 | 0 | 0 | 0 | 0 | 0 | 0 | 0 | 0 | 0 | 0 | 0 | 0 | 0 | 0 | 0 | RCC V at 5XCmax (RCC V; 5XCmax): 0; Swelling 5XCmax ([3]; 5XCmax): 0; Swelling 10XCmax ([3]; 10XCmax): 0; Cytochrome c release 2.5XCmax [4]: 0; Cytochrome c release 5XCmax [4]: 0; Cytochrome c release 10XCmax ([4]; 10XCmax): 7.91±2.25 percentage of the positive control group; Labeling for cardiotoxicity [5]: W&P: Decreased Left Ventricular Ejection Fraction; QT Prolongation; Potential for cardiotoxicity (based on labeling) [5]: 1; Cmax [6]: 2.43 µg/mL; DILI potential (based on labeling) ([7]; ref product labeling): 1; Labeling for DILI ([7]; in vivo): BBW: fatal DILI; ROS measured by CM-H2DCFDA at 1XCmax [8]: 0; ROS measured by CM-H2DCFDA at 2.5XCmax [8]: 0; ROS measured by CM-H2DCFDA at 5XCmax [8]: 0; ROS measured by CM-H2DCFDA at 10XCmax [8]: 0
